The source of these data is patent publication US20230099204A1, “PHARMACEUTICAL COMPOSITION FOR PREVENTION OR TREATMENT OF CANCER IN WHICH KRAS MUTATION AND ACTIVATED RON ARE PRESENT” (WELLMARKER BIO CO., LTD., priority 2020, published 2023).

The subject of test [1] is SW620. Description: MTS assay, cytotoxicity on colorectal cancer cell line SW620. The class given is cell-based. To be noted: Homo sapiens, SW-620, RON Δ155, KRAS G12V, 72 hours. The method, then:
(§1) MTS assay was performed to compare cytotoxicity of the compounds of Example 1, Example 2, Example 3, Example 4, Example 5, Example 6, and positive control 1 on a colorectal cancer cell line, and a cell death rate of the colorectal cancer cell line was analyzed to compare anticancer activity of the compounds.
(§2) The MTS assay was performed by seeding each colorectal cell line in a 96-well plate at 1,000 cells per well, and after 24 hours, performing treatment with the compounds of Examples 1 to 6 and positive control 1 at various concentrations (0.000001 μM to 10 μM) in 100 μL of 10% FBS-RPMI medium (WELGENE Inc.) per well. The cells were incubated for 72 hours. Then, 20 μL of MTS solution (Promega) was added thereto, and the cells were incubated for 2 hours. Then, the absorbance was measured at 490 nm. The IC50 values for the compounds of Examples 1 to 6 and positive control 1 were calculated using GraphPad Prism™ 5 to investigate cytotoxicity.
A general note: Tetrazolium assays rely on reduction of a dye to a coloured formazan, in cell work by metabolically active cells.

A further test concerns SNUC2A. The test is described as follows: MTS assay, cytotoxicity on colorectal cancer cell line SNUC2A. The following applies: RON mutation negative, KRAS G12D, 72 hours. The test is classed as cell-based. The method, then: as §1, §2
Another test deals with SNU-C2A. Description: Cell death induction, trypan blue cell counting, SNU-C2A. The test is classed as cell-based. To be noted: SNUC2A with inactive RON; 1 μM; 48 hours; FIG. 1. The method, then: (§3) Based on the results above, to identify the cell death-inducing ability of the compounds of Example 1 and positive control 1, which are representative materials, preparation was performed by seeding respective colorectal cancer cell lines SNU-[…], HCT8, T84, and SW620 onto 60-mm plates at 3×10^5 cells, and then incubation was performed for 24 hours. Thereafter, treatment with each of Example 1 and positive control 1 was performed at 1μM and incubation was performed for 48 hours. After 48 hours, the cells and cell suspensions were collected by treatment with trypsin, resuspended in 1× PBS and stained using a trypan blue solution (Sigma, cat# T8154). The stained cells were counted using a hemocytometer. Cell counting was repeated, and the mean and the standard deviation were calculated.

Test [2] deals with HCT8 (KRAS G13D/pTyr-wtRON(+)). Description: Cell line HCT8-transplanted mouse model. The test is classed as in vivo, BALB/c nude mice. The method, then:
5-Week-old female BALB/c nude mice were purchased and acclimatized for 1 week. Then, human colorectal cancer patient-derived cell line SW620 (KRAS
G12V/mRON Δ155) at 5×10^6 cells/mouse was injected subcutaneously (100 μL) into the right dorsal side of the mice. The compound of Example 1 was orally administered when the tumor reached a size of about 100 mm^3. The drug was administered once a day for 4 weeks, and tumor size and mouse body weight were measured twice a week. After completion of the drug administration, the experimental animals were euthanized, and then the tumors were extracted and weighed for comparative analysis.
A portion of the extracted tumor tissue was fixed in 10% formalin and processed into a paraffin block. Then, the block was made into sections. Staining of the slide was performed through immunochemical staining. Another portion of the extracted tumor tissue was subjected to lysis, and then Western blotting was used to identify changes in expression of respective proteins.
The experiment was conducted in the same method as the procedure of Experimental Example 3, except that human colorectal cancer patient-derived cell line HCT8 (KRAS G13D/pTyr-wtRON(+)) was used in place of the human colorectal cancer patient-derived cell line SW620 (KRAS G12V/mRON Δ155), and the respective compounds of Example 1, positive control 1, and positive control 2 were administered.

Test [3] relates to SW620. The test is described as follows: Cell death induction, trypan blue cell counting, SW620. The test is classed as cell-based, human. The following applies: 1 μM, 48 hours. The method, then: as §3, with “48 hours. In addition, preparation was performed by seeding the cell line SW620 onto a 60-mm plate at 3×10^5 cells, and then incubation was performed for 24 hours. Thereafter, treatment with each of Example 1, positive control 1, positive control 2, and positive control 3 was performed at 1 μM. After 48” for “48 hours. After 48”

As a reminder, the IC50 is the concentration that gives 50% inhibition. A low value points to higher potency.

As to `CCOc1ccn(-c2ccc(F)cc2)c(=O)c1C(=O)Nc1ccc(Oc2ccnc3cc(-c4ccc(CN5CCOCC5)cn4)sc23)c(F)c1.Cl` [Example 1, 4-ethoxy-N-[3-fluoro-4-({2-[5-(morpholinomethyl)pyridine-2-yl]thieno[3,2-b]pyridine-7-yl}oxy)phenyl]-1-(4-fluorophenyl)-2-oxo-1,2-dihydropyridine-3-carboxamide hydrochloride], the IC50 came out at 0.32 µM in the test with SW620 [1] and 5.78 µM with SNUC2A. The “cell death induction efficacy” value was “no response” in the test with SNU-C2A and “cell death induction efficacy was exhibited regardless of mutation type” in the test with SW620 [3] (SW620 with a RON mutation, FIG. 1). In addition, the “Tumor growth inhibition (TGI, %)” value in test [2] (10 mg/kg, oral, once a day for 4 weeks) was 58.5 ± 9.1%. For the same molecule, in test [2] (compared with positive control 1 and positive control 2, FIG. 8), the “tumor growth inhibitory efficacy” value is listed as “high tumor growth inhibitory efficacy”. In addition, in the test with SW620 [3] (SW620 (KRAS G12V/mRON Δ155), FIG. 2), the cell death rate entry is “high cell death rate”.
